Assay results as given in patent publication US20240009259A1, “USE OF CRASSOCEPHALUM RABENS EXTRACT IN THE PREVENTION AND/OR TREATMENT OF FATIGUE AND/OR DEPRESSION” (ACADEMIA SINICA, priority 2021, published 2024).
Counter-ions that a name gives are not always drawn.

Legend:
[1] = system: skeletal muscle lactate dehydrogenase (LDH); assay: Skeletal muscle lactate dehydrogenase (LDH) activity after forced swimming test; assay type: in vivo, BALB/c mice; conditions: Program II; male mice; Fluoxetine 10 mg/kg i.p. daily
[2] = system: skeletal muscle malate dehydrogenase (MDH); assay: Skeletal muscle malate dehydrogenase (MDH) activity after forced swimming test; assay type: in vivo, BALB/c mice; conditions: Program II; male mice; Fluoxetine 10 mg/kg i.p. daily
[3] = Blood (serum) biochemical parameters after 28-day treatment; assay type: in vivo, BALB/c mice; conditions: male mice, 28 days
[4] = assay type: in vivo, BALB/c mice; conditions: Program II; male mice; Fluoxetine 10 mg/kg i.p. daily, 4 weeks

- ALB, albumin (serum) ([3]; Fluoxetine 10 mg/kg i.p. daily): 3.67 ± 0.28 g/dL
- ALP, alkaline phosphatase (serum) ([3]; Fluoxetine 10 mg/kg i.p. daily): 501.2 ± 21.2 U/L
- CHO, cholesterol (serum) ([3]; Fluoxetine 10 mg/kg i.p. daily): 136.5 ± 42.9 mg/dL
- CTE, creatinine (serum) ([3]; Fluoxetine 10 mg/kg i.p. daily): 0.45 ± 0.05 mg/dL
- GLU, glucose (serum) ([3]; Fluoxetine 10 mg/kg i.p. daily): 207.0 ± 12.6 mg/dL
- GOT, glutamic oxaloacetic transaminase (serum) ([3]; Fluoxetine 10 mg/kg i.p. daily): 171.0 ± 19.8 U/L
- GPT, glutamic pyruvic transaminase (serum) ([3]; Fluoxetine 10 mg/kg i.p. daily): 61.2 ± 19.2 U/L
- HDL, high-density lipoprotein (serum) ([3]; Fluoxetine 10 mg/kg i.p. daily): 136.6 ± 15.3 mg/dL
- LDH, lactate dehydrogenase (serum) ([3]; Fluoxetine 10 mg/kg i.p. daily): 362.7 ± 65.3 U/L
- TBIL, total bilirubin (serum) ([3]; Fluoxetine 10 mg/kg i.p. daily): 0.65 ± 0.04 mg/dL
- TG, triglyceride (serum) ([3]; Fluoxetine 10 mg/kg i.p. daily): 288.3 ± 27.1 mg/dL
- TP, total protein (serum) ([3]; Fluoxetine 10 mg/kg i.p. daily): 5.01 ± 0.35 g/dL
- UA, uric acid (serum) ([3]; Fluoxetine 10 mg/kg i.p. daily): 2.77 ± 0.32 mg/dL
Compound: CNCCC(Oc1ccc(C(F)(F)F)cc1)c1ccccc1 (centres unmarked) [Fluoxetine, fluoxetine hydrochloride]
- increase of LDH activity compared to the vehicle control treatment [1]: 1.3 fold
- increase of MDH activity compared to the vehicle control treatment [2]: 1.1 fold
- serum biochemical parameters ([3]; Fluoxetine i.p.): no significant difference and fall within the reference range of normal or healthy mice
- body weight, feed and water intake [4]: did not have significant differences
